Our source for the EC50 and IC50 values is patent US11028087B2, “2,6-disubstituted-9-cyclopentyl-9H-purines, use thereof as medicaments, and pharmaceutical compositions” (UNIVERZITA PALACKEHO V OLOMOUCI, priority 2017, dated 2021).

Molecules are shown by their SMILES.

Test [1] deals with Kasumi-1 (acute myeloid leukemia, KIT mutation Asn822Lys). Kind of test: Calcein AM cytotoxicity assay. It is filed as cell-based. Conditions: Homo sapiens, 72 h; Kasumi-1; Calcein AM, three days; read-out: EC50 values (μM) Kasumi-1. The source says:
(§1) Cytotoxicity of the compounds is the major property determining their anticancer effect in vivo. One of the parameters used, as the basis for cytotoxicity assays, is the integrity of cytoplasmic membrane of viable cells. For example, a microtiter assay, which uses acetomethoxy derivate of calcein (Calcein AM), is widely used for evaluation of cell proliferation and cytotoxicity. This assay is used in drug screening programs and in chemosensitivity testing. Intracellular esterases of viable cells convert calcein AM to green-fluorescent calcein of which signal corresponds to the number of viable cells in the culture.
(§2) We have been using the following cell lines: MV4-11 (acute myeloid leukemia, FLT3-ITD positive), MOLM-13 (acute myeloid leukemia, FLT3-ITD positive), THP-1 (acute myeloid leukemia, wt FLT3), U937 (monocytic leukemia, wt FLT3), EOL-1 (eosinophilic leukaemia, carrying the fusion FIP1L1-PDGFRA), H1703 (non-small cell lung carcinoma, PDGFRA amplification). They were maintained in RPMI-1640 supplemented with 10% fetal bovine serum, penicillin (100 U/ml) and streptomycin (100 μg/ml). Kasumi-1 (acute myeloid leukemia, KIT mutation Asn822Lys) cells were cultivated in RPMI-1640 supplemented with 15% fetal bovine serum, penicillin (100 U/ml) and streptomycin (100 μg/ml). K562 and MCF-7 cell lines were maintained in DMEM supplemented with 10% fetal bovine serum, penicilin (100 U/ml) and streptomycin (100 μg/ml). All cell lines were cultivated at 37° C. in 5% CO2. For cytotoxicity assays, cells were seeded in appropriate densities into 96 well plates and the next day tested compounds were added at various concentrations in triplicates. Three days after drug addition, Calcein AM solution (final concentration 1 μg/ml; Thermo Scientific, USA) was added into each well and incubated for 1 h. After this incubation period, fluorescence of the live cells was measured at 485 nm/538 nm (ex/em) with a Fluoroskan Ascent microplate reader (Labsystems).

Test [2] has as its system MV4-11 (acute myeloid leukemia, FLT3-ITD positive). Kind of test: Calcein AM cytotoxicity assay. It counts as cell-based. Conditions: Homo sapiens, 72 h; MV4-11; Calcein AM, three days after drug addition; read-out: EC50 values (μM) MV4-11.
Source text: as §1
as §2, with “They were maintained in RPMI-1640 supplemented with 10% fetal bovine serum, penicillin (100 U/ml) and streptomycin (100 μg/ml). Kasumi-1 (acute myeloid leukemia, KIT mutation Asn822Lys) cells were cultivated in RPMI-1640 supplemented with 15% fetal bovine serum, penicillin (100 U/ml) and streptomycin (100 μg/ml).” left out, “h.” for “h. After this incubation period, fluorescence of the live cells was measured at 485 nm/538 nm (ex/em) with a Fluoroskan Ascent microplate reader (Labsystems).”

The subject of test [3] is U937 (monocytic leukemia, wt FLT3). Nature of the test: Calcein AM cytotoxicity assay. Conditions: Homo sapiens, U-937, 72 h; U937; Calcein AM, three days; read-out: EC50 values (μM) U937. It is filed as cell-based.
Source text: as §1
as §2, with “They were maintained in RPMI-1640 supplemented with 10% fetal bovine serum, penicillin (100 U/ml) and streptomycin (100 μg/ml). Kasumi-1 (acute myeloid leukemia, KIT mutation Asn822Lys) cells were cultivated in RPMI-1640 supplemented with 15% fetal bovine serum, penicillin (100 U/ml) and streptomycin (100 μg/ml).” left out, “h.” for “h. After this incubation period, fluorescence of the live cells was measured at 485 nm/538 nm (ex/em) with a Fluoroskan Ascent microplate reader (Labsystems).”

The test system of test [4] is MCF-7. Nature of the test: Calcein AM cytotoxicity assay. Conditions: Homo sapiens, MCF7, 72 h; MCF-7; Calcein AM, three days; read-out: EC50 values (μM) MCF-7. It is filed as cell-based.
Source text: as §1
as §2, with “They were maintained in RPMI-1640 supplemented with 10% fetal bovine serum, penicillin (100 U/ml) and streptomycin (100 μg/ml). Kasumi-1 (acute myeloid leukemia, KIT mutation Asn822Lys) cells were cultivated in RPMI-1640 supplemented with 15% fetal bovine serum, penicillin (100 U/ml) and streptomycin (100 μg/ml).” left out, “h.” for “h. After this incubation period, fluorescence of the live cells was measured at 485 nm/538 nm (ex/em) with a Fluoroskan Ascent microplate reader (Labsystems).”

Test [5] deals with K562. Nature of the test: Calcein AM cytotoxicity assay. It is filed as cell-based. Conditions: Homo sapiens, 72 h; K562; Calcein AM, three days; read-out: EC50 values (μM) K562.
Source text: as §1
as §2, with “They were maintained in RPMI-1640 supplemented with 10% fetal bovine serum, penicillin (100 U/ml) and streptomycin (100 μg/ml). Kasumi-1 (acute myeloid leukemia, KIT mutation Asn822Lys) cells were cultivated in RPMI-1640 supplemented with 15% fetal bovine serum, penicillin (100 U/ml) and streptomycin (100 μg/ml).” left out, “h.” for “h. After this incubation period, fluorescence of the live cells was measured at 485 nm/538 nm (ex/em) with a Fluoroskan Ascent microplate reader (Labsystems).”

Test [6] has as its system THP-1 (acute myeloid leukemia, wt FLT3). Nature of the test: Calcein AM cytotoxicity assay. Conditions: Homo sapiens, 72 h; THP-1; Calcein AM, three days; read-out: EC50 values (μM) THP-1. It is filed as cell-based.
Source text: as §1
as §2, with “They were maintained in RPMI-1640 supplemented with 10% fetal bovine serum, penicillin (100 U/ml) and streptomycin (100 μg/ml). Kasumi-1 (acute myeloid leukemia, KIT mutation Asn822Lys) cells were cultivated in RPMI-1640 supplemented with 15% fetal bovine serum, penicillin (100 U/ml) and streptomycin (100 μg/ml).” left out, “h.” for “h. After this incubation period, fluorescence of the live cells was measured at 485 nm/538 nm (ex/em) with a Fluoroskan Ascent microplate reader (Labsystems).”

Test [7] relates to MOLM-13 (acute myeloid leukemia, FLT3-ITD positive). Kind of test: Calcein AM cytotoxicity assay. It is filed as cell-based. Conditions: Homo sapiens, 72 h; MOLM-13; Calcein AM, three days; read-out: EC50 values (μM) MOLM-13.
Source text: as §1
as §2, with “They were maintained in RPMI-1640 supplemented with 10% fetal bovine serum, penicillin (100 U/ml) and streptomycin (100 μg/ml). Kasumi-1 (acute myeloid leukemia, KIT mutation Asn822Lys) cells were cultivated in RPMI-1640 supplemented with 15% fetal bovine serum, penicillin (100 U/ml) and streptomycin (100 μg/ml).” left out, “h.” for “h. After this incubation period, fluorescence of the live cells was measured at 485 nm/538 nm (ex/em) with a Fluoroskan Ascent microplate reader (Labsystems).”

In test [8] the test system is EOL-1 (eosinophilic leukaemia, carrying the fusion FIP1L1-PDGFRA). Nature of the test: Calcein AM cytotoxicity assay. Conditions: Homo sapiens, EOL1, 72 h; EOL-1; Calcein AM, three days; read-out: EC50 values (μM) EOL-1. It is filed as cell-based.
Source text: as §1
as §2, with “They were maintained in RPMI-1640 supplemented with 10% fetal bovine serum, penicillin (100 U/ml) and streptomycin (100 μg/ml). Kasumi-1 (acute myeloid leukemia, KIT mutation Asn822Lys) cells were cultivated in RPMI-1640 supplemented with 15% fetal bovine serum, penicillin (100 U/ml) and streptomycin (100 μg/ml).” left out, “h.” for “h. After this incubation period, fluorescence of the live cells was measured at 485 nm/538 nm (ex/em) with a Fluoroskan Ascent microplate reader (Labsystems).”

The target of test [9] is T1, CDK2/Cyclin E (Homo sapiens, UniProt P24941).
T1 construct: made in house; host or cells: Sf9 insect cells, baculoviral infection
Kind of test: Kinase inhibition assay with [γ-33P]ATP. Conditions: histone H1, 15 μM ATP; read-out: IC50 values (μM) CDK2. It is filed as biochemical. How it is done:
(§3) CDK1/Cyclin B and CDK2/Cyclin E kinases were produced in Sf9 insect cells via baculoviral infection and purified on a NiNTA column (Qiagen). CDK5/p35 and CDK7Cyclin H/MAT1, FLT3 WT, FLT3-ITD and FLT3 D835 were purchased from ProQinase GmbH. The kinase reactions were assayed with 1 mg/mL histone H1 (for CDK1, CDK2 and CDK5), (YSPTSPS)2KK peptide (for CDK7) or AGLT substrate (for FLT3) in the presence of 15/15/0.15/1.5/1 μM ATP (for CDK1/CDK2/CDK5/CDK7/FLT3), 0.05 μCi [γ-^33P]ATP and of the test compound in a final volume of 10 μL, all in a reaction buffer (60 mM HEPES-NaOH, pH 7.5, 3 mM MgCl2, 3 mM MnCl2, 3 μM Na-orthovanadate, 1.2 mM DTT, 2.5 μg/50 μl PEG20,000). The reactions were stopped by adding 5 μL of 3% aq H3PO4. Aliquots were spotted onto P-81 phosphocellulose (Whatman), washed 3× with 0.5% aq H3PO4 and finally air-dried.

Test [10] has as its target T2, FLT3 WT (Homo sapiens, UniProt P36888).
T2 construct: purchased ProQinase GmbH
T2 sequence (P36888 27-993): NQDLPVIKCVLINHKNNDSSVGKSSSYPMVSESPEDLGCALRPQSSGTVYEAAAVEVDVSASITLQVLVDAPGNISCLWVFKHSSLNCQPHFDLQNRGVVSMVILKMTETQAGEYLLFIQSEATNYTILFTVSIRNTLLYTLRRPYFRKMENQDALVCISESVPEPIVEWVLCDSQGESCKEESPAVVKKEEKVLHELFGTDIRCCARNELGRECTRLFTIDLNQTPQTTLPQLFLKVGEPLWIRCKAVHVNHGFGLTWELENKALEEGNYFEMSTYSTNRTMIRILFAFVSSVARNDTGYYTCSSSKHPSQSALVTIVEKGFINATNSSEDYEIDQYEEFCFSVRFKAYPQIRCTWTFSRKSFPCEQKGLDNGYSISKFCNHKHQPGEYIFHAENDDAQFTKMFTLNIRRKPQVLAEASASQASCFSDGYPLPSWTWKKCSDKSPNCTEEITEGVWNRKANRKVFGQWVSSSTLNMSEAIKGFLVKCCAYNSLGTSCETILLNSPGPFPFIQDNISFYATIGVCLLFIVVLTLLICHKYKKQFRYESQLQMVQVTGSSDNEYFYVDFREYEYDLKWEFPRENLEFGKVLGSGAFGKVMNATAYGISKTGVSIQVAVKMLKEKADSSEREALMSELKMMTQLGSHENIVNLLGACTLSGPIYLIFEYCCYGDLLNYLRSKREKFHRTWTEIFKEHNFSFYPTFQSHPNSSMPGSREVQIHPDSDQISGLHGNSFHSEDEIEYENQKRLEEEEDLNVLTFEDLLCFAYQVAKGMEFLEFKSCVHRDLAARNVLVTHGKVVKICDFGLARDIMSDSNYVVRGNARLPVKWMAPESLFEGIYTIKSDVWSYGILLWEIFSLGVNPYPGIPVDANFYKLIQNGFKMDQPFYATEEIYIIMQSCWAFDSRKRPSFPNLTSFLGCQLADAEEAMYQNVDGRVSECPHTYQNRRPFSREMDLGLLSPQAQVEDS
Kind of test: Kinase inhibition assay with [γ-33P]ATP. It is filed as biochemical. Conditions: AGLT substrate, 1 μM ATP. How it is done:
as §3

The target of test [11] is T3, CDK1/Cyclin B (Homo sapiens, UniProt P06493).
T3 construct: made in house; host or cells: Sf9 insect cells, baculoviral infection
Nature of the test: Kinase inhibition assay with [γ-33P]ATP. It counts as biochemical. Conditions: histone H1, 15 μM ATP. How it is done: as §3

Test [12] concerns the target T4, CDK5/p35 (Homo sapiens, UniProt Q00535).
T4 construct: purchased ProQinase GmbH
Nature of the test: Kinase inhibition assay with [γ-33P]ATP. Conditions: histone H1, 0.15 μM ATP. It counts as biochemical. How it is done:
as §3

T3 sequence (P06493 whole entry, species assumed): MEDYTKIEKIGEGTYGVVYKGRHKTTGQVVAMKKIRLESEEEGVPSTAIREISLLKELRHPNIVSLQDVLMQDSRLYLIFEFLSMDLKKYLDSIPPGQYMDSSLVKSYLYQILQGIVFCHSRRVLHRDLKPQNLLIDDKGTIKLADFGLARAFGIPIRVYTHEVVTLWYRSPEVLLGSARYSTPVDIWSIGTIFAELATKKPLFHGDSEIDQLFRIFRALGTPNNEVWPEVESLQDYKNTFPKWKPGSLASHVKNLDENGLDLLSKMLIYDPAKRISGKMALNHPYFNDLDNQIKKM
T3 sequence (P14635 whole entry partner, species assumed): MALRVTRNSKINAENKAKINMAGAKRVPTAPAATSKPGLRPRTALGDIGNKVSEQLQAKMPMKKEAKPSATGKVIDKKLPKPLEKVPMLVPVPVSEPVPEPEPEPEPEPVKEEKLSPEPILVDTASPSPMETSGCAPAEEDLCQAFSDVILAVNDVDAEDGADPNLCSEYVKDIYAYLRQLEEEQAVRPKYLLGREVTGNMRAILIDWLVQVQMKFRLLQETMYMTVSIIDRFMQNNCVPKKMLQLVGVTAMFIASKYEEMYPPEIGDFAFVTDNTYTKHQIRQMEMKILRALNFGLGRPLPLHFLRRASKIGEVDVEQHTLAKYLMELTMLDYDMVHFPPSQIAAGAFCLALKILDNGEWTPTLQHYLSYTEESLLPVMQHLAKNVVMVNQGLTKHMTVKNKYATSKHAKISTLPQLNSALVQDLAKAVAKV
T4 sequence (Q00535 whole entry): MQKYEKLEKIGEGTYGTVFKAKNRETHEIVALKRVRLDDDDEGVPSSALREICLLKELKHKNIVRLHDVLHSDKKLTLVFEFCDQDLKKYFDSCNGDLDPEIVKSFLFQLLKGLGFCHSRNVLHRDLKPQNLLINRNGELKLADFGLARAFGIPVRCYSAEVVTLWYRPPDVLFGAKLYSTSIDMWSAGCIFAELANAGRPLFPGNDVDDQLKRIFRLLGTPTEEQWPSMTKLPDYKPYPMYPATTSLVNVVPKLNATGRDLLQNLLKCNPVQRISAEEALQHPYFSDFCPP
T4 sequence (Q15078 whole entry partner): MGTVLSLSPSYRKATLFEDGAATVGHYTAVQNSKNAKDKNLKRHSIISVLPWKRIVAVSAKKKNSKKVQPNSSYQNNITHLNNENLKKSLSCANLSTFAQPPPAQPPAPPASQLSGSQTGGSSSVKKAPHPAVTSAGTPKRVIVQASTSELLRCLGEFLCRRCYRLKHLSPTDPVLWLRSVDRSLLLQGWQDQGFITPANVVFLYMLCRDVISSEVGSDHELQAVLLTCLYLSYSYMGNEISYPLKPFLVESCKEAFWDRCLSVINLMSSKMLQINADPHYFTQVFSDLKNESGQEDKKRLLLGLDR

Take `NCCCCCNc1nc(Nc2ccc(CN3CCOCC3)cc2)c2ncn(C3CCCC3)c2n1` [Compound 267]: the EC50 in [1] was 1.25 µM; in test [2], 0.032 µM; in test [3] it was 3.63 µM; in test [4], 2.27 µM; in [5] it was 1.79 µM; in test [6] it was 2.42 µM. Further, the EC50 is 0.02 µM in [7] and 0.071 µM in test [8]. The IC50 in [9] was found to be 2.04 µM; in [10], 0.025 µM; in test [11], 6.05 µM; in test [12], 3.71 µM.
`NCCCCCCNc1nc(Nc2ccc(CN3CCOCC3)cc2)c2ncn(C3CCCC3)c2n1` [Compound 38]: the EC50 in test [1] was 1.23 µM; in test [2] it was 0.086 µM; in test [3] it was 2.92 µM; in test [4] it was 5.55 µM; in test [5], 4.57 µM; in [6], 3.59 µM. For the same compound, the EC50 in [7] is 0.064 µM; in [8], 0.276 µM. In addition, the IC50 worked out at 3.56 µM in test [9], 0.021 µM in [10], 6.16 µM in test [11] and 8.16 µM in test [12].

By EC50 is commonly meant the midpoint of the concentration-response curve. A word on the IC50: it is the concentration that gives 50% inhibition.
